Results published in patent US9862723B2, “Stable polymorph of the salt of (2R)-4-oxo-4-[3-(trifluoromethyl)-5,6-dihydro[1,2,4]triazolo[4,3-α]pyrazin-7(8H)-yl]-1-(2,4,5-trifluorophenyl)butan-2-anime with L-tartaric acid” (ZENTIVA k.s, priority 2013, dated 2018).

Experiment: Relative stability of the crystalline forms of sitagliptin L-tartrate (polymorph transformation on contamination/seeding with Form Z1)
Assay type: physicochemical
Settings: for stability of the crystalline form (polymorph) relative to the other form: comparison of WO 2005/072530 crystalline form with Form Z1 of sitagliptin L-tartrate, further experiments
Excerpt: When studying the properties of salts of (2R)-4-oxo-4-[3-(trifluoromethyl)-5,6-dihydro[1,2,4]triazolo[4,3-α]pyrazin-7(8H)-yl]-1-(2,4,5-trifluorophenyl)butan-2-amine (sitagliptin), a quite new polymorph (Form Z1) of the salt of (2R)-4-oxo-4-[3-(trifluoromethyl)-5,6-dihydro[1,2,4]triazolo[4,3-α]pyrazin-7(8H)-yl]-1-(2,4,5-trifluorophenyl)butan-2-amine (sitagliptin) with L-tartaric acid has been successfully obtained, characterized by the following reflections in the X-ray powder pattern: 5.9; 9.8; 14.2; 19.5; 23.8 and 26.2±0.2° 2-theta.
Preparation of the Salt of (2R)-4-oxo-4-[3-(trifluoromethyl)-5,6-dihydro[1,2,4]triazolo[4,3-α]pyrazin-7(8H)-yl]-1-(2,4,5-trifluorophenyl)butan-2-amine with L-tartaric acid (Mixture of Forms) The salt of (2R)-4-oxo-4-[3-(trifluoromethyl)-5,6-dihydro[1,2,4]triazolo[4,3-α]pyrazin-7(8H)-yl]-1-(2,4,5-trifluorophenyl)butan-2-amine (sitagliptin) with L-tartaric acid, prepared in accordance with Example 1 (according to WO 2005/072530) (2 g) was suspended in propan-2-ol (50 ml) and the suspension was heated up to 50° C. under constant agitation. The polymorph Z1 (0.1 g) prepared in accordance with Example 2 was added to the white suspension. The mixture was agitated at the same temperature for 20 minutes and after cooling to 20° C. the product was filtered off and washed with a small amount of propan-2-ol. The obtained product was dried in a vacuum drier at 40° C. 1.9 g of a mixture of forms was obtained, Form Z1 being enriched considerably.

SMILES | stability of the crystalline form (polymorph) relative to the other form | transformation of the original polymorph to Form Z1 (inconsiderable contamination by Form Z1, even under the conditions in which the original crystalline form is prepared)
N[C@@H](CC(=O)N1CCn2c(nnc2C(F)(F)F)C1)Cc1cc(F)c(F)cc1F.O=C(O)C(O)C(O)C(=O)O [Form Z1, salt of (2R)-4-oxo-4-[3-(trifluoromethyl)-5,6-dihydro[1,2,4]triazolo[4,3-α]pyrazin-7(8H)-yl]-1-(2,4,5-trifluorophenyl)butan-2-amine (sitagliptin) with L-tartaric acid] | more stable | –
N[C@@H](CC(=O)N1CCn2c(nnc2C(F)(F)F)C1)Cc1cc(F)c(F)cc1F.O=C(O)C(O)C(O)C(=O)O [previously described crystalline form, Salt of (2R)-4-oxo-4-[3-(trifluoromethyl)-5,6-dihydro[1,2,4]triazolo[4,3-α]pyrazin-7(8H)-yl]-1-(2,4,5-trifluorophenyl)butan-2-amine with L-tartaric acid] | significantly less stable | very quick transformation
